The record followed here is ChEMBL document CHEMBL1151999, “3-Lithioquinuclidin-2-ene: A novel intermediate for the synthesis of muscarinic agonists and antagonists” (Bioorg Med Chem Lett, 1994).

Assay [1] addresses Muscarinic acetylcholine receptor M3 (Homo sapiens, UniProt P20309). Put plainly: In vitro binding affinity towards muscarinic receptor in parotid gland (M3). It counts as tissue-based.
Assay [2] concerns the target T1, Muscarinic acetylcholine receptor M2 (Homo sapiens, UniProt P08172).
T1 sequence (P08172 whole entry): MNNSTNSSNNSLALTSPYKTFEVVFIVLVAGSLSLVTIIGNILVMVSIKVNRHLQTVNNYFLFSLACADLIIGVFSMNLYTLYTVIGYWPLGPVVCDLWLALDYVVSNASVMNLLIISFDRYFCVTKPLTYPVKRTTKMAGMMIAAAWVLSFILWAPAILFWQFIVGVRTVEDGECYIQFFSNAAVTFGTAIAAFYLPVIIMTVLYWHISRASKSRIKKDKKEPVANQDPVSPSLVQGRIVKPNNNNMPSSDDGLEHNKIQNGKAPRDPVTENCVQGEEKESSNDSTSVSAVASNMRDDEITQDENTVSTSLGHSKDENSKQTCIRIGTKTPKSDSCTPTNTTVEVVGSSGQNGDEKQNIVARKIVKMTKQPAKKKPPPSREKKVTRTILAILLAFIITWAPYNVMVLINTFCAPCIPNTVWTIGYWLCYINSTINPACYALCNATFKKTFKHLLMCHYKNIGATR
Description: In vitro binding affinity towards muscarinic receptor in heart (M2) was determined.

In assay [3] the target is Muscarinic acetylcholine receptor. Description: In vitro binding affinity towards muscarinic receptor in urinary bladder was determined. It counts as protein assay, Cavia porcellus.
Assay [4] addresses T2, Muscarinic acetylcholine receptor M1 (Homo sapiens, UniProt P11229).
T2 sequence (P11229 whole entry): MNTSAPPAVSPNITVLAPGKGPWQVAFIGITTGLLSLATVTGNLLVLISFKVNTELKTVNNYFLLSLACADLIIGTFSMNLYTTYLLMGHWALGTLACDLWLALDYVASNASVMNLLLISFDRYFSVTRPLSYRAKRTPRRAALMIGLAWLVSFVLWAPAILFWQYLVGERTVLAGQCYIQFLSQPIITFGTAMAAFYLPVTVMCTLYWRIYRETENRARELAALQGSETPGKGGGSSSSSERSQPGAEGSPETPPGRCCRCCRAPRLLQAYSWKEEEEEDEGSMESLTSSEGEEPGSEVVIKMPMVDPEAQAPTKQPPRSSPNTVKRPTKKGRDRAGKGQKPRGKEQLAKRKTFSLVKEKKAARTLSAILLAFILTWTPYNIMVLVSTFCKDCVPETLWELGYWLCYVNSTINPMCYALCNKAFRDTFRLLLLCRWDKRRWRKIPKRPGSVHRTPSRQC
Put plainly: In vitro binding affinity towards muscarinic receptor in cerebral cortex (M1) was determined. Format: tissue-based.

Assay [5] deals with Muscarinic acetylcholine receptor (Cavia porcellus). Description: Binding affinity towards muscarinic receptor in urinary bladder was determined.

Each structure is given as a SMILES string.

Chain of Muscarinic acetylcholine receptor M3 (P20309 whole entry): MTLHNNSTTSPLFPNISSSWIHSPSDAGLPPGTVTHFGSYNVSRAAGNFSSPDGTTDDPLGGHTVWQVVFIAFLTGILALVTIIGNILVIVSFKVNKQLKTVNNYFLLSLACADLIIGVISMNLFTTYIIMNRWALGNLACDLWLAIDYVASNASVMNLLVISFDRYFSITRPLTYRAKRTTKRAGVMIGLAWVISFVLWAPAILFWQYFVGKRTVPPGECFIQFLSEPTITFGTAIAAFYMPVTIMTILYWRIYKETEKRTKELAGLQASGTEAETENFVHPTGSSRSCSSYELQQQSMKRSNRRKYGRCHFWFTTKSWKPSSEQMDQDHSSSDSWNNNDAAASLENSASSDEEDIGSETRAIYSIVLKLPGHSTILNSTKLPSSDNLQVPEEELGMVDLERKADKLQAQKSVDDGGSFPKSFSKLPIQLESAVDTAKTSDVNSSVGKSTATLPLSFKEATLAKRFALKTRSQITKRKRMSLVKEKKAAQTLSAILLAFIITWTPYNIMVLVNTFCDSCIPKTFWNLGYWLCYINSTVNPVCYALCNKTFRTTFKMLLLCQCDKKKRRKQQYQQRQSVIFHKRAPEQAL

As to `O=Cc1ccc(C2=CN3CCC2CC3)s1`, the Ki in assay [1] turned out to be 4.8 µM; in assay [2], 2.6 µM; in assay [3], 5.7 µM; in assay [4] it was 0.99 µM.

For the compound `OC1(C2=CN3CCC2CC3)c2ccccc2CCc2ccccc21`, the Ki is 6.9 µM in assay [1], 2.4 µM in assay [2], 8 µM in assay [3] and 2.04 µM in assay [4].

Turning to `COc1ccccc1C(O)C1=CN2CCC1CC2` (configuration not stated), the inhibition constant Ki in assay [1] worked out at 1.5 µM; in assay [2], 2.2 µM; in assay [3], 2.5 µM; in assay [4] it was 0.33 µM. In assay [5], the Kb was 0.45 µM.

As to `OC1(C2=CN3CCC2CC3)c2ccccc2Oc2ccccc21`, the inhibition constant Ki in assay [1] is 17 µM; in assay [2] it was above 8 µM; in assay [4], above 8 µM.

In the case of `OC1(C2=CN3CCC2CC3)c2ccccc2C=Cc2ccccc21`, the Ki in assay [1], in assay [2] and in assay [4] was above 0.2 µM throughout.

Consider `OC1(C2=CN3CCC2CC3)c2ccccc2-c2ccccc21`, for which the Ki in assay [1], in assay [2], in assay [3] and in assay [4] was above 5 µM in each case.

Take `CC(=O)c1ccc(C2=CN3CCC2CC3)s1`: the Ki is 2.6 µM in assay [1], 1.55 µM in assay [2], 2.6 µM in assay [3] and 0.48 µM in assay [4].

In the case of `c1ccc2c(c1)C(=C1CN3CCC1CC3)c1ccccc1-2`, the Ki in assay [1] came to 0.1 µM; in assay [2] it was 0.098 µM; in assay [3], 0.249 µM; in assay [4], 0.05 µM. The same compound yielded a Kb in assay [5] of 0.37 µM.
